Data from ChEMBL document CHEMBL4814028, “Design, synthesis, and antibacterial evaluation of PFK-158 derivatives as potent agents against drug-resistant bacteria” (Bioorg Med Chem Lett, 2021).
Converted amounts (≈) assume the structure as drawn.

Columns and labels:
[1] = tested on: Escherichia coli; test: Antibacterial activity against ESBLs positive Escherichia coli ATCC 35218 by agar method; type: functional
[2] = tested on: Escherichia coli; test: Synergistic antibacterial activity against carbapenem-resistant Escherichia coli 08-85 mcr-1 positive isolate in presence of colistin by checkerboard assay; type: functional
[3] = tested on: Staphylococcus epidermidis; test: Antibacterial activity against methicillin-resistant Staphylococcus epidermidis 16-5 by agar method; type: functional
[4] = tested on: Enterobacter cloacae; test: Antibacterial activity against carbapenem-resistant Enterobacter cloacae D01 mcr-1 negative isolate by checkerboard assay; type: functional
[5] = tested on: Enterococcus faecalis; test: Antibacterial activity against Vancomycin-sensitive Enterococcus faecalis ATCC 29212 by agar method; type: functional
[6] = tested on: Escherichia coli; test: Antibacterial activity against carbapenem-resistant Escherichia coli 08-85 mcr-1 positive isolate by checkerboard assay; type: functional
[7] = tested on: Staphylococcus aureus; test: Antibacterial activity against methicillin-resistant Staphylococcus aureus ATCC 33591 by agar method; type: functional
[8] = tested on: Escherichia coli; test: Antibacterial activity against ESBLs negative Escherichia coli ATCC 25922 by agar method; type: functional
[9] = tested on: Enterococcus faecalis; test: Antibacterial activity against vancomycin-resistant Enterococcus faecalis ATCC 51299 by agar method; type: functional
[10] = tested on: Staphylococcus aureus; test: Antibacterial activity against methicillin-sensitive Staphylococcus aureus ATCC 29213 by agar method; type: functional
[11] = tested on: Escherichia coli; test: Synergistic antibacterial activity against carbapenem-resistant Escherichia coli 08-85 mcr-1 positive isolate assessed as fractional inhibitory concentration index in presence of colistin by checkerboard assay; type: functional
[12] = tested on: Enterobacter cloacae; test: Synergistic antibacterial activity against carbapenem-resistant Enterobacter cloacae D01 mcr-1 negative isolate assessed as fractional inhibitory concentration index in presence of colistin by checkerboard assay; type: functional
[13] = tested on: Acinetobacter baumannii; test: Antibacterial activity against carbapenem-resistant Acinetobacter baumannii 16-33 by agar method; type: functional
[14] = tested on: Staphylococcus epidermidis; test: Antibacterial activity against methicillin-sensitive Staphylococcus epidermidis ATCC 12228 by agar method; type: functional
[15] = tested on: Enterobacter cloacae; test: Synergistic antibacterial activity against carbapenem-resistant Enterobacter cloacae D01 mcr-1 negative isolate in presence of colistin by checkerboard assay; type: functional
[16] = tested on: Escherichia coli; test: Antibacterial activity against NDM-1 positive Escherichia coli ATCC 2469 by agar method; type: functional
[17] = tested on: A549; test: Cytotoxicity against human A549 cells; type: cell-based
[18] = tested on: Staphylococcus epidermidis; test: Potency index, ratio of Levofloxacin MIC to test compound MIC for antibacterial activity against methicillin-resistant Staphylococcus epidermidis […] 16-5; type: functional

SMILES | MIC [1] | MIC [2] | MIC [3] | MIC [4] | MIC [5] | MIC [6] | MIC [7] | MIC [8] | MIC [9] | MIC [10] | fractional inhibitory concentration index (FICI) [11] | fractional inhibitory concentration index (FICI) [12] | MIC [13] | MIC [14] | MIC [15] | MIC [16] | IC50 [17] | Ratio [18]
O=C(/C=C/c1ccccn1)c1ccc2ccccc2c1 | > 128 µg/mL | 128 µg/mL | 2 µg/mL (≈ 7.71 µM) | 1020 µg/mL | 8 µg/mL (≈ 30.9 µM) | 1020 µg/mL | 1 µg/mL (≈ 3.86 µM) | > 128 µg/mL | 8 µg/mL (≈ 30.9 µM) | 1 µg/mL (≈ 3.86 µM) | 0.375 | 0.023 | > 128 µg/mL | 1 µg/mL (≈ 3.86 µM) | 16 µg/mL | > 128 µg/mL |  | 
O=C(/C=C/c1ccc2ccccc2n1)c1ccccn1 | > 32 µg/mL | 32 µg/mL | 1 µg/mL (≈ 3.84 µM) | 1020 µg/mL | 4 µg/mL (≈ 15.4 µM) | 1020 µg/mL | 1 µg/mL (≈ 3.84 µM) | > 32 µg/mL | 4 µg/mL (≈ 15.4 µM) | 2 µg/mL (≈ 7.68 µM) | 0.281 | 0.012 | > 32 µg/mL | 1 µg/mL (≈ 3.84 µM) | 4 µg/mL | > 32 µg/mL | 18.5 µM | 2
O=C(/C=C/c1ccc2ccccc2n1)c1ccccc1 | > 128 µg/mL |  | 4 µg/mL (≈ 15.4 µM) |  | 128 µg/mL (≈ 494 µM) |  | 2 µg/mL (≈ 7.71 µM) | > 128 µg/mL | 128 µg/mL (≈ 494 µM) | 2 µg/mL (≈ 7.71 µM) |  |  | > 128 µg/mL | 2 µg/mL (≈ 7.71 µM) |  | > 128 µg/mL |  | 2
O=C(/C=C/c1ccc2c(C(F)(F)F)cccc2n1)c1ccncc1 | > 128 µg/mL |  | 4 µg/mL (≈ 12.2 µM) |  | > 128 µg/mL |  | 1 µg/mL (≈ 3.05 µM) | > 128 µg/mL | > 128 µg/mL | 1 µg/mL (≈ 3.05 µM) |  |  | 128 µg/mL (≈ 390 µM) | 2 µg/mL (≈ 6.09 µM) |  | > 128 µg/mL | 45.4 µM | 
O=C(/C=C/c1ccc2c(C(F)(F)F)cccc2n1)c1ccccn1 | > 128 µg/mL |  | 2 µg/mL (≈ 6.09 µM) |  | > 128 µg/mL |  | 1 µg/mL (≈ 3.05 µM) | > 128 µg/mL | > 128 µg/mL | 1 µg/mL (≈ 3.05 µM) |  |  | 128 µg/mL (≈ 390 µM) | 2 µg/mL (≈ 6.09 µM) |  | > 128 µg/mL | 43.1 µM | 
O=C(/C=C/c1ccc2ccc(C(F)(F)F)cc2n1)c1cccnc1 | > 32 µg/mL |  | 2 µg/mL (≈ 6.09 µM) |  | 4 µg/mL (≈ 12.2 µM) |  | 1 µg/mL (≈ 3.05 µM) | > 32 µg/mL | 4 µg/mL (≈ 12.2 µM) | 1 µg/mL (≈ 3.05 µM) |  |  | > 32 µg/mL | 1 µg/mL (≈ 3.05 µM) |  | > 32 µg/mL | 9.8 µM | 
O=C(/C=C/c1ccc2ccc(C(F)(F)F)cc2n1)c1ccncc1 [PFK-158] | > 32 µg/mL | 2 µg/mL | 2 µg/mL (≈ 6.09 µM) | 1020 µg/mL | 4 µg/mL (≈ 12.2 µM) | 1020 µg/mL | 2 µg/mL (≈ 6.09 µM) | > 32 µg/mL | 4 µg/mL (≈ 12.2 µM) | 2 µg/mL (≈ 6.09 µM) | 0.252 | 0.008 | > 32 µg/mL | 1 µg/mL (≈ 3.05 µM) | 0.5 µg/mL | > 32 µg/mL | 15 µM | 2
O=C(/C=C/c1ccc2ccccc2n1)c1cccnc1 | > 32 µg/mL | 64 µg/mL | 4 µg/mL (≈ 15.4 µM) | 1020 µg/mL | 2 µg/mL (≈ 7.68 µM) | 1020 µg/mL | 2 µg/mL (≈ 7.68 µM) | > 32 µg/mL | 8 µg/mL (≈ 30.7 µM) | 2 µg/mL (≈ 7.68 µM) | 0.313 | 0.07 | > 32 µg/mL | 2 µg/mL (≈ 7.68 µM) | 64 µg/mL | > 32 µg/mL | 21.1 µM | 2
O=C(/C=C/c1ccc2c(C(F)(F)F)cccc2n1)c1cccnc1 | > 128 µg/mL |  | 2 µg/mL (≈ 6.09 µM) |  | 32 µg/mL (≈ 97.5 µM) |  | 2 µg/mL (≈ 6.09 µM) | > 128 µg/mL | 32 µg/mL (≈ 97.5 µM) | 2 µg/mL (≈ 6.09 µM) |  |  | 128 µg/mL (≈ 390 µM) | 2 µg/mL (≈ 6.09 µM) |  | > 128 µg/mL | > 50 µM | 2
O=C(/C=C/c1ccc2ccc(C(F)(F)F)cc2n1)c1ccccn1 | > 128 µg/mL |  | 4 µg/mL (≈ 12.2 µM) |  | > 128 µg/mL |  | 2 µg/mL (≈ 6.09 µM) | > 128 µg/mL | 128 µg/mL (≈ 390 µM) | 1 µg/mL (≈ 3.05 µM) |  |  | 128 µg/mL (≈ 390 µM) | 4 µg/mL (≈ 12.2 µM) |  | > 128 µg/mL | 10.2 µM | 
C[n+]1cccc(/C=C/C(=O)c2ccc3ccccc3c2)c1.[I-] | > 128 µg/mL |  | > 128 µg/mL |  | > 128 µg/mL |  | 128 µg/mL | > 128 µg/mL | > 128 µg/mL | 128 µg/mL |  |  | > 128 µg/mL | 64 µg/mL |  | > 128 µg/mL |  | 
O=C(/C=C/c1ccc2ccccc2c1)c1ccccn1 | > 128 µg/mL |  | > 128 µg/mL |  | > 128 µg/mL |  | > 128 µg/mL | > 128 µg/mL | > 128 µg/mL | > 128 µg/mL |  |  | > 128 µg/mL | > 128 µg/mL |  | > 128 µg/mL |  | 
O=C(/C=C/c1ccccn1)c1ccc2ccc(C(F)(F)F)cc2n1 | > 32 µg/mL |  | 4 µg/mL (≈ 12.2 µM) |  | 32 µg/mL (≈ 97.5 µM) |  | 2 µg/mL (≈ 6.09 µM) | > 32 µg/mL | > 32 µg/mL | 4 µg/mL (≈ 12.2 µM) |  |  | > 32 µg/mL | 2 µg/mL (≈ 6.09 µM) |  | > 32 µg/mL | 11.2 µM | 
